Earlier results in patent US9668986B2, “Ophthalmic, intra-articular or intravesical preparations containing N-acyl-ethanolamines” (EPITECH GROUP S.R.I., priority 2014, dated 2017).

Experiments:
[1] = biological target: CB2 (Homo sapiens, UniProt P34972)
[2] = biological target: cannabinoid receptors CB1 (Homo sapiens, UniProt P21554)
Chain of cannabinoid receptors CB1 (P21554 whole entry): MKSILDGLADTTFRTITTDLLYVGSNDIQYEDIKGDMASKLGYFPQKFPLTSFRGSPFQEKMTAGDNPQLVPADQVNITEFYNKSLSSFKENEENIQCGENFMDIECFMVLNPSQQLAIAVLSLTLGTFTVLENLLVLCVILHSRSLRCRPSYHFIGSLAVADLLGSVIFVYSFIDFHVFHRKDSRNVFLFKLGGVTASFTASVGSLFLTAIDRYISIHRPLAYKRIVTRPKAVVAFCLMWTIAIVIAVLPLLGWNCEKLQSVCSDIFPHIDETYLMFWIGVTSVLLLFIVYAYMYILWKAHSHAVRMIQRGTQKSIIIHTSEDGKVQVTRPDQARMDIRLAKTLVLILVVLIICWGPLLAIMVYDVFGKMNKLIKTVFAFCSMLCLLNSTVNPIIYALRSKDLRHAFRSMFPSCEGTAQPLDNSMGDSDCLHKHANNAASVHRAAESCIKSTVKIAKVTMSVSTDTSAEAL

Chain of CB2 (P34972 whole entry, species assumed): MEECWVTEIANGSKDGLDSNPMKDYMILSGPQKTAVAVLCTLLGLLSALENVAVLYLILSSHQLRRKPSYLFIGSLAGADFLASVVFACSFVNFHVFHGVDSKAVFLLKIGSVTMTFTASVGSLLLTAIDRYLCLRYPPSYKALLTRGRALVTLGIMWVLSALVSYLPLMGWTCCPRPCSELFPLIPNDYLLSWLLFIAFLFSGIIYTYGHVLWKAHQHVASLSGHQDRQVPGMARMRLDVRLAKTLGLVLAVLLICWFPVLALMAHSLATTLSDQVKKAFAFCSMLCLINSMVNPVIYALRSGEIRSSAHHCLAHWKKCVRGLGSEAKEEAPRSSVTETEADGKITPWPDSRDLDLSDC

water solubility: not water-soluble
affinity for CB2 [1]: poor affinity
affinity for CB1 [2]: poor affinity
SMILES: CCCCCCCCCCCCCCCC(=O)NCCO [PEA, N-palmitoylethanolamine]
